In the Kinase Knowledgebase extract (Sharma et al. 2016):

How the values were obtained:
PIK3CD (Human) [1] = biological target: PIK3CD (Human) (UniProt O00329); assay: Cell-Based Assay; details: u937
PIK3CA (human) = PIK3CA (human) (UniProt P42336); assay: Assessment of PIK3CA Kinase Activity
PIK3CG (human) = PIK3CG (human) (UniProt P48736); assay: Assessment of PIK3CG Kinase Activity
PIK3CD (Human) [2] = biological target: PIK3CD (Human) (UniProt O00329); assay: Enzyme Assay

PIK3CG (human), sequence (P48736 whole entry, looked up): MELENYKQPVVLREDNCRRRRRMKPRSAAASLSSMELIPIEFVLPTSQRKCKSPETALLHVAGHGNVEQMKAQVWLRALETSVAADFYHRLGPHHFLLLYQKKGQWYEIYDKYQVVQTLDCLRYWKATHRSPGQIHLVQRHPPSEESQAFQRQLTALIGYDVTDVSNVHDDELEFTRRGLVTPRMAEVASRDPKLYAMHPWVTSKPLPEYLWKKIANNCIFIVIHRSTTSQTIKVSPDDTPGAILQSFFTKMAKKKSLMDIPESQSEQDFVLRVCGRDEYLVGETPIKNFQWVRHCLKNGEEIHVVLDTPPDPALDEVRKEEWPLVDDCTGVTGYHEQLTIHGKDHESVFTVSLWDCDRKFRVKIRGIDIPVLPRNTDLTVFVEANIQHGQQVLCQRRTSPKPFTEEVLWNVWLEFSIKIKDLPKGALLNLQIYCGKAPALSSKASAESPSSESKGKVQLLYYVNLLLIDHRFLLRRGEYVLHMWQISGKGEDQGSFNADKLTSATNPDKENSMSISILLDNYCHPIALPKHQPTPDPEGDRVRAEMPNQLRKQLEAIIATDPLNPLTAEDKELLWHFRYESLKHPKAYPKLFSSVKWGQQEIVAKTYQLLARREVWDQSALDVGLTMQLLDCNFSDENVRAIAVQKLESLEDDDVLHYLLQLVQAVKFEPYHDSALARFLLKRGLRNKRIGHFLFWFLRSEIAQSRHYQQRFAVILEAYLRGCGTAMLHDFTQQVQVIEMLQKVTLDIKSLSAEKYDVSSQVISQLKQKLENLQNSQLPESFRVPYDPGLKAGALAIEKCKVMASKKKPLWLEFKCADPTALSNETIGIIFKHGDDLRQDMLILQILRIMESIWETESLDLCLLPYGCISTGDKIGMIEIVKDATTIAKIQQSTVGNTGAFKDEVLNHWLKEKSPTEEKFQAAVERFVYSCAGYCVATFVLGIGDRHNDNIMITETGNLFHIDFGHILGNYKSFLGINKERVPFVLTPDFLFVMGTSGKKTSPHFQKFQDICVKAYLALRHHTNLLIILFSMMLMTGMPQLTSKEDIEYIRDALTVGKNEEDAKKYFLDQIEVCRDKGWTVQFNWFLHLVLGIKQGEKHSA
PIK3CA (human), sequence (P42336 whole entry, looked up): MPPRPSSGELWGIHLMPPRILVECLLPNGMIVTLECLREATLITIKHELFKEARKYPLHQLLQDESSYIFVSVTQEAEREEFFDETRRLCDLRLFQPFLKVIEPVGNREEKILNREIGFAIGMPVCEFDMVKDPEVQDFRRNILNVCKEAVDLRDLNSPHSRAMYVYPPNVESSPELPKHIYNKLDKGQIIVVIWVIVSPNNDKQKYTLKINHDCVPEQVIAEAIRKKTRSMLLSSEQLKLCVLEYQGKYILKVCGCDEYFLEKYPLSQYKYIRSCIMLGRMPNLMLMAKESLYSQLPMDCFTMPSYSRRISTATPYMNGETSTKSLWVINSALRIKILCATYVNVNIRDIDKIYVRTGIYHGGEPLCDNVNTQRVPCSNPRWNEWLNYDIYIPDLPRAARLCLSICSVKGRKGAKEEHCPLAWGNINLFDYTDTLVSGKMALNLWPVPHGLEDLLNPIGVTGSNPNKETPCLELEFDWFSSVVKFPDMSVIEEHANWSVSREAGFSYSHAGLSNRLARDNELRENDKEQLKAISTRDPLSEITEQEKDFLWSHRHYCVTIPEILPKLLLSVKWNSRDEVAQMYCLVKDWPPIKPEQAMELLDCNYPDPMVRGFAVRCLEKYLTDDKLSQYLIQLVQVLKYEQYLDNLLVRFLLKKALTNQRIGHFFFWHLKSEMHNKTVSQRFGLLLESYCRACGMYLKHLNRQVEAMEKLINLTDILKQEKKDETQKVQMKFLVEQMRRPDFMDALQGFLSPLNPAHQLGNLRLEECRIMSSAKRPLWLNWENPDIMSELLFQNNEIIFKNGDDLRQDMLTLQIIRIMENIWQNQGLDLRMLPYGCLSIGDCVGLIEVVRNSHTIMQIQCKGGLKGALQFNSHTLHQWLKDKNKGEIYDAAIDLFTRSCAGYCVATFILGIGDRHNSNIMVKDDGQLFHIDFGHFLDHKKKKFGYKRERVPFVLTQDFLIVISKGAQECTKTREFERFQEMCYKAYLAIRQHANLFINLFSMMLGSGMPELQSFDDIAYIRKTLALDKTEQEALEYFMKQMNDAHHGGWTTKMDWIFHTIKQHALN
PIK3CD (Human), sequence (O00329 whole entry, looked up): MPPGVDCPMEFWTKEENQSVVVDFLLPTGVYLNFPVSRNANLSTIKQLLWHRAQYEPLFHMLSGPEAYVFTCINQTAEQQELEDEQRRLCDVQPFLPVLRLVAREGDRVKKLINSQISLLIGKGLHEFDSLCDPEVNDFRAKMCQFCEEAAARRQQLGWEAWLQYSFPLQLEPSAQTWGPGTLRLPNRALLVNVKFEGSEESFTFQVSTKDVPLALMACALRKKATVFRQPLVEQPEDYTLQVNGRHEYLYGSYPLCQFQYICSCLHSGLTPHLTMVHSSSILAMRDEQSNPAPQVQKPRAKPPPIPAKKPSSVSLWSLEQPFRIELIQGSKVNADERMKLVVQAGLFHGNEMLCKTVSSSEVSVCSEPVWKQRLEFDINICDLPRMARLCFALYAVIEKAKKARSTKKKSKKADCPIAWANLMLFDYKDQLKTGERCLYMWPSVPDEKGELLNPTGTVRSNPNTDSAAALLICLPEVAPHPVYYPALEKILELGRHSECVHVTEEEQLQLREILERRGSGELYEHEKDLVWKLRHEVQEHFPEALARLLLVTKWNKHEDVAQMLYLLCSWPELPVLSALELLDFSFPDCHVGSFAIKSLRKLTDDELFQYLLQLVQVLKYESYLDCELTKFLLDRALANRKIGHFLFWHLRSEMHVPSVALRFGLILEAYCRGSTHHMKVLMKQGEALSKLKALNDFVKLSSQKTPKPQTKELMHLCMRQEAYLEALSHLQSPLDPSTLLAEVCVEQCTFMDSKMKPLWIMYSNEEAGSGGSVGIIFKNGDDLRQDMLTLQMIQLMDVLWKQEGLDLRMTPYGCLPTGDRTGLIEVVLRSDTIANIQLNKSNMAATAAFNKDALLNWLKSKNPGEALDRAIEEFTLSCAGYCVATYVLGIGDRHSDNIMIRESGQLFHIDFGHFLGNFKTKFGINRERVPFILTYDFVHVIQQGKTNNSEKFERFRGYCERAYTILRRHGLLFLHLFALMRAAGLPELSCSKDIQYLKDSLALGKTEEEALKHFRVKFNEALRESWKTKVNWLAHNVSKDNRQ

Compound | IC50 (PIK3CD (Human) [1]) [nM] | IC50 (PIK3CA (human)) [nM] | IC50 (PIK3CG (human)) [nM] | IC50 (PIK3CD (Human) [2]) [nM]
Cc1cnc(Cn2c(Cn3nc(-c4cccc(O)c4)c4c(N)ncnc43)nc3cccc(C#CCCCC(=O)N4CCOCC4)c3c2=O)cn1 | < 10 | 50 to 1000 | < 50 | < 50
COCCOCCOCC#Cc1cccc2nc(Cn3nc(-c4cccc(O)c4)c4c(N)ncnc43)n(Cc3ccccc3Cl)c(=O)c12 | < 10 |  | 50 to 1000 | < 50
Nc1ncnc2c1c(-c1ccc(O)cc1)nn2Cc1nc2cccc(C#CCCCC(=O)NC3CCNC3)c2c(=O)n1Cc1ccccc1Cl (centres undefined) | < 10 | 1490 | < 50 | < 50
C#Cc1cccc2nc(Cn3nc(-c4ccc(O)cc4)c4c(N)ncnc43)n(Cc3cccc(C#N)c3)c(=O)c12 | < 10 | 50 to 1000 | 50 to 1000 | < 50
COCCOCC#Cc1cccc2nc(Cn3nc(-c4cccc(O)c4)c4c(N)ncnc43)n(Cc3ccccc3Cl)c(=O)c12 | < 10 | 50 to 1000 | 50 to 1000 | < 50
C#Cc1cccc2nc(Cn3nc(-c4ccc(O)cc4)c4c(N)ncnc43)n(Cc3ccc(OC)cc3)c(=O)c12 | < 10 |  |  | 
C#Cc1cccc2nc(Cn3nc(-c4cccc(O)c4)c4c(N)ncnc43)n(Cc3cccc(C(F)(F)F)c3)c(=O)c12 | < 10 |  |  | 
Nc1ncnc2c1c(-c1cccc(O)c1)nn2Cc1nc2cccc(C#CCCCC(=O)Nc3ccncc3)c2c(=O)n1Cc1ccccc1Cl | 10 to 1000 |  |  | 
CC(C)NC(=O)CCCC#Cc1cccc2nc(Cn3nc(-c4cccc(O)c4)c4c(N)ncnc43)n(Cc3ccccc3Cl)c(=O)c12 | < 10 |  |  | 
CN(C)CCNC(=O)CCCC#Cc1cccc2nc(Cn3nc(-c4ccc(O)cc4)c4c(N)ncnc43)n(Cc3ccccc3Cl)c(=O)c12 | < 10 |  |  | 
Cc1nc(Cn2c(Cn3nc(-c4cccc(O)c4)c4c(N)ncnc43)nc3cccc(C#CCCCC(=O)N4CCOCC4)c3c2=O)cs1 | < 10 |  |  | 
CC(=O)NCC(=O)NCC#Cc1cccc2nc(Cn3nc(-c4cccc(O)c4)c4c(N)ncnc43)n(Cc3ccccc3Cl)c(=O)c12 | < 10 | 50 to 1000 | < 50 | < 50
